# Assay results published in patent US10538497B2, “Compounds as indoleamine 2,3-dioxygenase inhibitors” (Merck Sharp & Dohme Corp., priority 2015, dated 2020).
# Assays:
# IDO1 [1] = target: T1, IDO1 (Homo sapiens (Human), UniProt P14902); assay: IDO1 Cellular Assay in Frozen HEK293 Cells Transiently Transfected with Human IDO1; type: cell-based; details: HEK293 cells transiently transfected with human IDO1; read-out: IDO1 HEK293 Cell Assay, IC50
# IDO1 [2] = target: T1, IDO1; assay: IDO1 Cellular Assay in Hela Cells Stimulated with IFNγ; type: cell-based; details: Hela cells stimulated with IFNγ 100 ng/mL; read-out: IDO1 HELA Cell Assay, IC50
# IDO1 [3] = target: T1, IDO1; assay: IDO1 Enzyme Assay; details: HIS-tagged recombinant IDO1, 40 nM
# [4] = read-out: IDO1 Enzyme Assay, IC50
# T1 sequence (P14902 whole entry): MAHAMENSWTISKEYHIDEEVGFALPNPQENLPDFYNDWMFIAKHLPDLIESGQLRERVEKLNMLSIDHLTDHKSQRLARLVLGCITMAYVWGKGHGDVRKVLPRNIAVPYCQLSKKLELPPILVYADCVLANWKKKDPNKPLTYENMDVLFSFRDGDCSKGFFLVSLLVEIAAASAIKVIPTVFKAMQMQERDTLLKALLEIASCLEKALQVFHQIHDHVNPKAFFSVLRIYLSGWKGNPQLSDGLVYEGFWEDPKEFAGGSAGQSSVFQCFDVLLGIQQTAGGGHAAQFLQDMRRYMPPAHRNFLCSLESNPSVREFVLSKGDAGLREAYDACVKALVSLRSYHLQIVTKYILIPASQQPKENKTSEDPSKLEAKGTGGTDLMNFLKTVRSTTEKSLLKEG
IC50 (IDO1 [1]),IC50 (IDO1 [2]),"IC50 (IDO1 [3]; IDO1 Enzyme Assay, IC50, nM)",IC50 (IDO1 [3]; [4]),Structure (SMILES)
167 nM,322 nM,111 nM,,"ON=C(Nc1ccc(F)c(Br)c1)c1nonc1SCC1CCOCC1 [Example 162, N-(3-bromo-4-fluorophenyl)-N′-hydroxy-4-[(tetrahydro-2H-pyran-4-ylmethyl)sulfanyl]-1,2,5-oxadiazole-3-carboximidamide]"
181 nM,405 nM,161 nM,,"ON=C(Nc1ccc(F)c(Br)c1)c1nonc1SCCN1CCNCC1 [Example 163, N-(3-bromo-4-fluorophenyl)-N′-hydroxy-4-[(2-piperazin-1-ylethyl)sulfanyl]-1,2,5-oxadiazole-3-carboximidamide]"
91.5 nM,246 nM,,62.2 nM,"CN1CCN(CCSc2nonc2C(=NO)Nc2ccc(F)c(Br)c2)CC1 [Example 164, N-(3-bromo-4-fluorophenyl)-N′-hydroxy-4-{[2-(4-methvlpiperazin-1-yl)ethyl]sulfanyl}-1,2,5-oxadiazole-3-carboximidamide]"
130 nM,159 nM,,126 nM,"OC[C@@H](O)CSc1nonc1/C(=N/O)Nc1ccc(F)c(C(F)(F)F)c1 [Example 165, 4-{[(2R)-2,3-dihydroxypropyl]sulfanyl}-N-[4-fluoro-3-(trifluoromethyl)phenyl]-N′-hydroxy-1,2,5-oxadiazole-3-carboximidamide]"
114 nM,138 nM,,126 nM,"OC[C@H](O)CSc1nonc1/C(=N/O)Nc1ccc(F)c(C(F)(F)F)c1 [Example 166, 4-{[(2S)-2,3-dihydroxypropyl]sulfanyl}-N-[4-fluoro-3-(trifluoromethyl)phenyl]-N′-hydroxy-1,2,5-oxadiazole-3-carboximidamide]"
110 nM,97.3 nM,,142 nM,"OC[C@H](O)CSc1nonc1/C(=N/O)Nc1ccc(F)c(C(F)F)c1 [Example 167, N-[3-(difluoromethyl)-4-fluorophenyl]-4-{[(2S)-2,3-dihydroxypropyl]sulfanyl}-N′-hydroxy-1,2,5-oxadiazole-3-carboximidamide]"
132 nM,110 nM,,68.4 nM,"OC[C@H](O)CSc1nonc1/C(=N/O)Nc1ccc(F)c(Cl)c1 [Example 170, N-(3-chloro-4-fluorophenyl)-4-{[(2S)-2,3-dihydroxypropyl]sulfanyl}-N′-hydroxy-1,2,5-oxadiazole-3-carboximidamide]"
47.5 nM,43.4 nM,78.6 nM,,"ON=C(Nc1ccc(F)c(Br)c1)c1nonc1SCCn1ccnc1 [Example 172, N-(3-bromo-4-fluorophenyl)-N′-hydroxy-4-{[2-(1H-imidazol-1-yl)ethyl]sulfanyl}-1,2,5-oxadiazole-3-carboximidamide]"
113 nM,63.6 nM,,82.7 nM,"CC(CO)(CO)NC(=O)CSc1nonc1/C(=N/O)Nc1ccc(F)c(Br)c1 [Example 174, 2-({4-[N-(3-bromo-4-fluorophenyl)-N′-hydroxycarbamimidoyl]-1,2,5-oxadiazol-3-yl}sulfanyl)-N-[2-hydroxy-1-(hydroxymethyl)-1-methylethyl]acetamide]"
182 nM,127 nM,,116 nM,"CC(O)C(CO)NC(=O)CSc1nonc1/C(=N/O)Nc1ccc(F)c(Br)c1 (stereo not drawn) [Example 176, 2-({4-[N-(3-bromo-4-fluorophenyl)-N′-hydroxycarbamimidoyl]-1,2,5-oxadiazol-3-yl}sulfanyl)-N-[2-hydroxy-1-(hydroxymethyl)propyl]acetamide]"
411 nM,469 nM,,97.3 nM,"O=C(CSc1nonc1/C(=N/O)Nc1ccc(F)c(Br)c1)N[C@H]1C[C@@H](O)[C@@H](O)C1 [Example 177, 2-({4-[N-(3-bromo-4-fluorophenyl)-N′-hydroxycarbamimidoyl]-1,2.5-oxadiazol-3-yl}sulfanyl)-N-[(1r,3R,4S)-3,4-dihydroxycyclopentyl]acetamide]"
309 nM,426 nM,,196 nM,"CC(=O)N[C@@H](C)CSc1nonc1/C(=N/O)Nc1ccc(F)c(C#N)c1 [Example 180, N-[(1S)-2-({4-[N-(3-cyano-4-fluorophenyl)-N′-hydroxycarbamimidoyl]-1,2,5-oxadiazol-3-yl}sulfanyl)-1-methylethyl]acetamide]"
25.6 nM,58.2 nM,,52.5 nM,"CS(=O)(=O)NCCSc1nonc1/C(=N/O)Nc1ccc(F)c(C(F)F)c1 [Example 183, N-[3-(difluoromethyl)-4-fluorophenyl]-N′-hydroxy-4-({2-[(methylsulfonyl)amino]ethyl}sulfanyl)-1,2,5-oxadiazole-3-carboximidamide]"
16.1 nM,47.4 nM,,50.9 nM,"CS(=O)(=O)NCCSc1nonc1/C(=N/O)Nc1ccc(F)c(Cl)c1 [Example 184, N-(3-chloro-4-fluorophenyl)-N′-hydroxy-4-({2-[(methylsulfonyl)amino]ethyl}sulfanyl)-1,2,5-oxadiazole-3-carboximidamide]"
412 nM,322 nM,,180 nM,"N#Cc1cc(N/C(=N\O)c2nonc2SCC(=O)NC2COC2)ccc1F [Example 186, 2-({4-[N-(3-cyano-4-fluorophenyl)-N′-hydroxycarbamimidoyl]-1,2,5-oxadiazol-3-yl}sulfanyl)-N-oxetan-3-ylacetamide]"
140 nM,272 nM,,86 nM,"N#Cc1cc(N/C(=N\O)c2nonc2SCCNC(=O)[C@H]2CC2(F)F)ccc1F [Example 187, (1R)-N-[2-({4-[N-(3-cyano-4-fluorophenyl)-N′-hydroxycarbamimidoyl]-1,2,5-oxadiazol-3-yl}sulfanyl)ethyl]-2,2-difluorocyclopropanecarboxamide]"
87.7 nM,173 nM,,87.9 nM,"N#Cc1cc(N/C(=N\O)c2nonc2SCCNC(=O)[C@@H]2CC2(F)F)ccc1F [Example 188, (1S)-N-[2-({4-[N-(3-cyano-4-fluorophenyl)-N′-hydroxycarbamimidoyl]-1,2,5-oxadiazol-3-yl}sulfanyl)ethyl]-2,2-difluorocyclopropanecarboxamide]"
770 nM,968 nM,,1280 nM,"CN(C)CCSc1nsnc1/C(=N/O)Nc1ccc(F)c(Br)c1 [Example 209, N-(3-bromo-4-fluorophenyl)-4-{[2-(dimethylamino)ethyl]sulfanyl}-N′-hydroxy-1,2,5-thiadiazole-3-carboximidamide]"
